“Also recorded” adds a separate entry of the source.
Columns and labels:
Lewis rats = test: Blood Lymphocyte Reduction (BLR) Assay in rat; format: in vivo; conditions: for Percent reduction vs. control at 24 hr post-dose (blood lymphocytes): rat, oral, 0.1 mg/kg
Method: (§1) Blood Lymphocyte Reduction (BLR) Assay in Rodent:
(§2) Lewis rats or BALB/c mice were dosed orally with vehicle alone (polyethylene glycol 300, “PEG300”) or with test compounds. Compounds were dosed as a solution or suspension in the vehicle, adjusted to reflect the free amount of test article in the event that salt forms are utilized. Blood was drawn at 24 hr and blood lymphocyte counts were determined on an ADVIA 120 Hematology Analyzer (Siemens Healthcare Diagnostics). The results were measured as a reduction in the percentage of circulating lymphocytes as compared to the vehicle treated group at the time of measurement. The results represent the average results of all animals within each treatment group (n=2-4).

Male Lewis rats = test: Rat Adjuvant Induced Arthritis Assay (AA); format: in vivo; conditions: prophylactic oral dosing regimen
Method: Rat Adjuvant Induced Arthritis Assay (AA)
The rat adjuvant-induced arthritis model is an animal model for human rheumatoid arthritis.
Male Lewis rats (150-175 g; Harlan, n=8 treatment group) were immunized at the base of the tail with 100 μl of 10 mg/ml freshly ground Mycobacterium butyricum (Difco Laboratories) in incomplete Freund's adjuvant (sigma). Animals were dosed once daily with the test article (as a solution or suspension in the vehicle) or vehicle alone (polyethylene glycol 300, “PEG300”) starting from the day of immunization. The volumes of their hind paws were measured in a water displacement plethysmometer (Ugo Basile, Italy). The baseline paw measurements were taken before onset of the disease (between day 7 to day 10). The paw measurements were then taken three times a week until the end of the study on day 20 to 21. All procedures involving animals were reviewed and approved by the Institutional Animal Care Use Committee.

C57BL/6 mice = test: Mouse Experimental Autoimmune Encephalomyelitis Assay (EAE); format: in vivo; conditions: for inhibition of disease progression as measured by clinical scores: C57Bl/6 mice, prophylactic oral dosing regimen; for Clinical scores on day 22, Mean: C57BL/6 mice, prophylactic, vehicle mean 4.1
Method: Mouse Experimental Autoimmune Encephalomyelitis Assay (EAE)
Mice (C57BL/6 female, 6-8 weeks of age, Charles River, n=10 treatment group) were immunized subcutaneously with 150 μg MOG35-55 emulsified 1:1 with incomplete Freund's adjuvant (sigma) supplemented with 150 μg Mycobacterium tuberculosis H37RA (Difco Laboratories). 400 ng of pertussis toxin (CalBiochem) was injected intraperitoneally on the day of immunization and 2 day later. Clinical scoring and body weight were taken 3 times per week. Clinical scoring system: 0.5: partial tail weakness; 1: limp tail or waddling gait with tail tonicity; 1.5: waddling gait with partial tail weakness; 2: waddling gait with limp tail (ataxia); 2.5: ataxia with partial limb paralysis; 3: full paralysis of one limb; 3.5: full paralysis of one limbs with partial paralysis of a second limb; 4: full paralysis of two limbs; 4.5: moribund; 5: death. Mean clinical score was calculated by averaging the scores of all mice in each group. All procedures involving animals were reviewed and approved by the Institutional Animal Care Use Committee.

Female Lewis rats = test: Rat Experimental Autoimmune Encephalomyelitis (EAE); format: in vivo; conditions: prophylactic oral dosing regimen
Method: Rat Experimental Autoimmune Encephalomyelitis (EAE)
Female Lewis rats (150-200 g; Harlan) were immunized at the base of the tail with 0.1 ml of a complete Freund's adjuvant emulsion containing 0.5 mg/mL guinea pig myelin basic protein (Genemed Synthesis) and 2 mg/mL Mycobacterium butyricum (Difco). Beginning on Day 7, rats (n=11/group) were scored individually at least 3×/wk according to the following scheme:
Average clinical scores were calculated for each treatment group on each day of assessment.

Male MRL/lpr mice = test: MRL/lpr Lupus Model (anti-dsDNA antibody titers, kidney histology); format: in vivo, mouse; conditions: for Anti-dsDNA antibody titers (23 weeks of age) (Mean): ratio to pooled MRL/lpr immune serum titer; for Kidney Histology (nephritis) 23 weeks of age (Mean): total score, highest possible 36
Method: MRL/lpr is a spontaneous model of lupus. Male MRL/lpr mice (Jackson Laboratory) at the age of 12-14 weeks were enrolled for the study (N=12). Mice were dosed p.o. daily with vehicle (18.4% (w/v) hydroxypropyl-b-cyclodextrin in 13.8 mM citric acid) or with Example 681 at 0.06, 0.3, 1.5 mg/kg. Mice were bled every other week for anti-dsDNA antibodies measured by ELISA using pooled serum from diseased MRL/lpr mice as a positive comparator in each assay. The data were expressed in arbitrary units as a ratio of the titer of the test serum to the titer of the pooled MRL/lpr immune serum.
At the end of study, one kidney was collected into 10% neutral buffered formalin and ZincTris fixatives. Fixed tissues were processed into paraffin blocks, sectioned at 3p m, and stained with H&E or PASH. Kidney sections were graded using following criteria: Glomerular Damage: 1. Mesangial matrix thickening, cell proliferation, 2. Crescent formation, cellular deposits/casts in Bowman's space, 3. Cellular infiltration, mononuclear cells in glomerular tufts, 4. Fibrosis of Bowman's capsule. Tubular damage: 1. Infiltration of mononuclear cells, 2. Severity of tubular damage, 3. Protein casts. Tubulo-interstitial damage: 1. Fibrosis, 2. Infiltration of mononuclear cells. Each subcategory was assigned a score from 0-4, with the scores for glomerular indices representing the mean from 20 glomeruli per kidney. The total score for each mouse was the sum of the above 9 subcategories, with the highest possible score=36.

BALB/c mice = test: Blood Lymphocyte Reduction (BLR) Assay in mouse; format: in vivo
Method: as §1, §2

COCCCCCC1CCc2cc([C@@H]3CC[C@](N)(CO)C3)ccc2C1 (single isomer, unassigned) [Example 675]
Percent reduction vs. control at 24 hr post-dose (blood lymphocytes) (Lewis rats): 63%

COc1ccccc1CC[C@H]1CCc2cc([C@H]3CC[C@](N)(CO)C3)ccc2C1 [Example 682, ((1R,3S)-1-amino-3-((R)-6-(2-methoxyphenethyl)-5,6,7,8-tetrahydronaphthalen-2-yl)cyclopentyl)methanol]
Percent reduction vs. control at 24 hr post-dose (blood lymphocytes) (Lewis rats): 17%

CCOCCC[C@H]1CCc2cc([C@H]3CC[C@](N)(CO)C3)ccc2C1 [Example 678, ((1R,3S)-1-amino-3-((R)-6-(3-ethoxypropyl)-5,6,7,8-tetrahydronaphthalen-2-yl)cyclopentyl)methanol]
Percent reduction vs. control at 24 hr post-dose (blood lymphocytes) (Lewis rats): 16%

COCCCCCC1CCc2cc([C@@H]3CC[C@](N)(CO)C3)ccc2C1 (single isomer, unassigned) [Example 674]
Percent reduction vs. control at 24 hr post-dose (blood lymphocytes) (Lewis rats): 30%

COCCCCC[C@H]1CCc2cc([C@H]3CC[C@](N)(CO)C3)ccc2C1 [Example 672, ((1R,3S)-1-amino-3-((S)-6-(5-methoxypentyl)-5,6,7,8-tetrahydronaphthalen-2-yl)cyclopentyl)methanol]
inhibition of disease progression as measured by reduced paw swelling (Male Lewis rats): showed inhibition of disease progression

CCOCCC[C@@H]1CCc2cc([C@H]3CC[C@](N)(CO)C3)ccc2C1 [Example 679, ((1R,3S)-1-amino-3-((S)-6-(3-ethoxypropyl)-5,6,7,8-tetrahydronaphthalen-2-yl)cyclopentyl)methanol]
inhibition of disease progression as measured by reduced paw swelling (Male Lewis rats): showed inhibition of disease progression
Percent reduction vs. control at 24 hr post-dose (blood lymphocytes) (Lewis rats): 65%
inhibition of disease progression as measured by clinical scores (C57BL/6 mice): showed inhibition of disease progression; also recorded: inhibit disease progression
inhibition of disease progression as measured by reduced clinical scores (Female Lewis rats): showed inhibition of disease progression

((1R,3S)-1-amino-3-((S)-6-(2-methoxyphenethyl)-5,6,7,8-tetrahydronaphthalen-2-yl)cyclopentyl)methanol [Example 681]
Percent reduction vs. control at 24 hr post-dose (blood lymphocytes) (Lewis rats): 53%
lymphocyte reduction (Lewis rats; rodent BLR assay, 0.1 mg/kg oral, 24 hours post-dose, versus vehicle group): 53%
Clinical scores on day 22, Mean (C57BL/6 mice; 0.1 mg/kg oral): 3.1
Clinical scores on day 22, Mean (C57BL/6 mice; 0.5 mg/kg oral): 1.1
Clinical scores on day 22, Mean (C57BL/6 mice; 2 mg/kg oral): 0.8
inhibition of disease progression as measured by clinical scores (C57BL/6 mice): showed inhibition of disease progression; also recorded: inhibit disease progression
Anti-dsDNA antibody titers (23 weeks of age) (Mean) (Male MRL/lpr mice; 0.06 mg/kg p.o. daily): 1.861 arbitrary units
Kidney Histology (nephritis) 23 weeks of age (Mean) (Male MRL/lpr mice; 0.06 mg/kg p.o. daily): 10.13
Anti-dsDNA antibody titers (23 weeks of age) (Mean) (Male MRL/lpr mice; 0.3 mg/kg p.o. daily): 0.978 arbitrary units
Kidney Histology (nephritis) 23 weeks of age (Mean) (Male MRL/lpr mice; 0.3 mg/kg p.o. daily): 10.00
Anti-dsDNA antibody titers (23 weeks of age) (Mean) (Male MRL/lpr mice; 1.5 mg/kg p.o. daily): 1.023 arbitrary units
Kidney Histology (nephritis) 23 weeks of age (Mean) (Male MRL/lpr mice; 1.5 mg/kg p.o. daily): 12.63
inhibition of disease progression as measured by anti-dsDNA titers (Male MRL/lpr mice; p.o. daily): showed inhibition of disease progression
inhibition of disease progression as measured by kidney histology (Male MRL/lpr mice; p.o. daily): showed inhibition of disease progression
lymphocyte reduction (BALB/c mice; mice, 0.5 mg/kg oral, 24 hours post dose): 85%
Mouse Blood Lymphocyte Reduction Assay at 24 hr post-dose Percent reduction vs. control (BALB/c mice; mouse, oral, 0.5 mg/kg, 24 hr post-dose): 85%

From patent publication US11701373B2, “Substituted bicyclic compounds” (BRISTOL-MYERS SQUIBB COMPANY, priority 2014, dated 2023)
